Experimental findings from patent US9777020B2, “Furo-3-carboxamide derivatives and methods of use” (AbbVie Inc., priority 2014, dated 2017) are described below.

The structures appear in SMILES notation.

The IC50 is the concentration at which inhibition is half-maximal. A low value points to inhibition by little substance.

TrkA, sequence (P04629 33-796): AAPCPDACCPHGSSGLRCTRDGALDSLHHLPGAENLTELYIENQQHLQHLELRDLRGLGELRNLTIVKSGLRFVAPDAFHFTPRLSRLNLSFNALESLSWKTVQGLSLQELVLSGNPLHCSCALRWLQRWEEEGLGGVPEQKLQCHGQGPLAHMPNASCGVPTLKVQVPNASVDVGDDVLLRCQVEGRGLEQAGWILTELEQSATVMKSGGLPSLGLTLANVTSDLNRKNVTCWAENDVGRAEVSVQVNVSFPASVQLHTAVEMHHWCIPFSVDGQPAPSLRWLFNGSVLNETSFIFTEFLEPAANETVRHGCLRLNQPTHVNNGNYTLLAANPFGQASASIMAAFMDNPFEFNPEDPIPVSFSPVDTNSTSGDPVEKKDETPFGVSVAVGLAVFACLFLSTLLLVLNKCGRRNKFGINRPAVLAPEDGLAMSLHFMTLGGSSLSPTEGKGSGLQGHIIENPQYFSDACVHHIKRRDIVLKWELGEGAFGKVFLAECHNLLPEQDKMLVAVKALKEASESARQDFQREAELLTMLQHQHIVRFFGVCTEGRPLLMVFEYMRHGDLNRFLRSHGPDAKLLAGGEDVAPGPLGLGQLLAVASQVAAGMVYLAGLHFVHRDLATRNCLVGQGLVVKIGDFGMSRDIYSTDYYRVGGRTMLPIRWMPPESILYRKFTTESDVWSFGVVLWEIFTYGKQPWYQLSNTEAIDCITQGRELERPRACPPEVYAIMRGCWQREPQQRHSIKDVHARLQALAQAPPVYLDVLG

The test deals with TrkA (Homo sapiens (Human), UniProt P04629). The test can be described thus: TrkA kinase HTRF enzyme inhibition assay. The test is classed as biochemical. The note with it: TrkA pre-incubated with 200 μM ATP. The method, then:
TrkA enzyme was obtained from Invitrogen (as catalog numbers PV3144, PV3616, and PV3617, respectively). Enzyme activity was measured in an HTRF® (homogeneous time resolved fluorescence) assay, which detects enzymatic phosphorylation of a biotinylated synthetic peptide substrate (an LCK peptide analog, biotin-ahx-[…], from Genemed Synthesis). Phosphorylation is assessed by HTRF® in the presence of an anti-phosphotyrosine antibody conjugated to Eu^3+ cryptate (Cisbio) as donor fluorophore, and streptavidin conjugated to allophycocyanin (ProZyme) as acceptor fluorophore. The HTRF® signal was detected at two different wavelengths (620 nm and 665 nm) which were used to calculate the fluorescence ratio.
TrkA enzyme was titrated to a concentration optimized to ensure accurate measurement of the initial reaction rate. To allow the TrkA enzyme to undergo activation and auto-phosphorylation, a 20 minute pre-incubation with ATP was carried out (at twice the final targeted enzyme and ATP concentration) prior to addition of test compound and the peptide substrate.
TrkA in vitro assays were performed by pre-incubating TrkA (2-10 nM) with ATP (200 μM) for 20 minutes at ambient temperature in 50 mM HEPES pH 7.4, 10 mM MgCl2, 2 mM MnCl2, 100 μM Na3VO4, 1 mM dithiothreitol, 0.01% BSA (bovine serum albumin). Then, to the activated Trk enzyme mixture was added the test compound in 2% dimethyl sulfoxide. After 10 minutes, the peptide substrate (125 nM) was added. After 1 hour, enzyme reactions were terminated by addition of equal reaction volumes of detection/stop reagent (containing 0.2 μg/mL anti-phosphotyrosine monoclonal antibody labeled with europium from Cisbio (catalog#PT66-K), and 4 μg/mL PhycoLink® Streptavidin-Allophycocyanin conjugate from ProZyme (catalog#PJ25S) in 60 mM EDTA in 40 mM HEPES pH 7.4, 480 mM KF, 0.01% Tween® 20 and 0.1% BSA bovine serum albumin) Reaction plates were stored at 4° C. overnight before reading the fluorescence ratio signal on a PerkinElmer EnVision™ fluorescence detector. Individual reaction wells were stopped at time points to obtain reaction rates. The test inhibitor compounds were assayed in duplicate, at half-log serial dilutions over a range of concentrations (e.g. starting at 50 μM or 5 μM as the high compound concentration). The percent Trk enzyme inhibition was calculated from the initial rates of the inhibited reactions relative to the uninhibited control. IC50 values were calculated by fitting the inhibition percent to the concentration of inhibitor [I] in the assay in equation 1 below, to solve for the IC50. Inhibition %=100[I]/([I]+[IC50]) equation 1
In the case of `Cn1cc2cc(NC(=O)c3coc4c3C(=O)CC3(CC3)C4)ccc2n1` [Example 159, N-(2-methyl-2H-indazol-5-yl)-4-oxo-4,7-dihydro-5H-spiro[1-benzofuran-6,1′-cyclopropane]-3-carboxamide], the IC50 was 10.3 nM.

Consider `CC(=O)N1CCN(c2ccc(NC(=O)c3coc4c3C(=O)N(C)CC4)cc2)CC1` [Example 28, N-[4-(4-acetylpiperazin-1-yl)phenyl]-5-methyl-4-oxo-4,5,6,7-tetrahydrofuro[3,2-c]pyridine-3-carboxamide], for which the IC50 was 110 nM.

`CC1(C)CC(=O)c2c(C(=O)Nc3ccc4[nH]c(CO)nc4c3)coc2C1` [Example 154, N-[2-(hydroxymethyl)-1H-benzimidazol-5-yl]-6,6-dimethyl-4-oxo-4,5,6,7-tetrahydro-1-benzofuran-3-carboxamide] had an IC50 of 74 nM.

The compound `COc1cc(N2CCN(C(C)=O)CC2)ccc1NC(=O)c1coc2c1C(=O)NCC2` [Example 18, N-[4-(4-acetylpiperazin-1-yl)-2-methoxyphenyl]-4-oxo-4,5,6,7-tetrahydrofuro[3,2-c]pyridine-3-carboxamide] had an IC50 of 59.8 nM.

In turn, `COc1cc(N2CCNCC2)ccc1NC(=O)c1coc2c1C(=O)NC(C)(C)C2` [Example 120, N-[2-methoxy-4-(piperazin-1-yl)phenyl]-6,6-dimethyl-4-oxo-4,5,6,7-tetrahydrofuro[3,2-c]pyridine-3-carboxamide] had an IC50 of 28 nM.

Compound `COc1cc(N2CCN(C(C)=O)CC2)ccc1NC(=O)c1coc2c1C(=O)CC(C)(C)C2` [Example 158, N-[4-(4-acetylpiperazin-1-yl)-2-methoxyphenyl]-6,6-dimethyl-4-oxo-4,5,6,7-tetrahydro-1-benzofuran-3-carboxamide] had an IC50 of 4.2 nM.

As to `CC(=O)Nc1ccc(NC(=O)c2coc3c2C(=O)N(C)CC3)cc1` [Example 60, N-(4-acetamidophenyl)-5-methyl-4-oxo-4,5,6,7-tetrahydrofuro[3,2-c]pyridine-3-carboxamide], the IC50 was found to be 2110 nM.

The compound `CCOc1nc(N2CCN(C(C)=O)CC2)ccc1NC(=O)c1coc2c1C(=O)N(CCOC)CC2` [Example 84, N-[6-(4-acetylpiperazin-1-yl)-2-ethoxypyridin-3-yl]-5-(2-methoxyethyl)-4-oxo-4,5,6,7-tetrahydrofuro[3,2-c]pyridine-3-carboxamide] gave an IC50 of 5.3 nM. Compared with the last compound, the IC50 is about 400-fold lower.

On to `O=C(Nc1ccc2[nH]ncc2c1)c1coc2c1C(=O)NCC2` [Example 14, N-(1H-indazol-5-yl)-4-oxo-4,5,6,7-tetrahydrofuro[3,2-c]pyridine-3-carboxamide], for which the midpoint of inhibition, the IC50, lay at 111 nM.

In turn, `CN1CCc2occ(C(=O)Nc3ccc(Cl)cn3)c2C1=O` [Example 70, N-(5-chloropyridin-2-yl)-5-methyl-4-oxo-4,5,6,7-tetrahydrofuro[3,2-c]pyridine-3-carboxamide] registered an IC50 of 2490 nM. Compared with the last compound, the IC50 is about 22-fold higher.

In turn, `CN1CCc2occ(C(=O)Nc3cccc(C#N)c3)c2C1=O` [Example 71, N-(3-cyanophenyl)-5-methyl-4-oxo-4,5,6,7-tetrahydrofuro[3,2-c]pyridine-3-carboxamide] returned an IC50 of 3670 nM. The IC50 values of the last two compounds are within 1.5-fold of each other.

On to `CC1(C)CC(=O)c2c(C(=O)Nc3ccc(N4CCNCC4)nc3)coc2C1` [Example 149, 6,6-dimethyl-4-oxo-N-[6-(piperazin-1-yl)pyridin-3-yl]-4,5,6,7-tetrahydro-1-benzofuran-3-carboxamide], for which the IC50 was found to be 135 nM.

In the case of `CCOc1nc(N2CCN(C(C)=O)CC2)ccc1NC(=O)c1coc2c1C(=O)N(C[C@@H](C)O)CC2` [Example 95, N-[6-(4-acetylpiperazin-1-yl)-2-ethoxypyridin-3-yl]-5-[(2R)-2-hydroxypropyl]-4-oxo-4,5,6,7-tetrahydrofuro[3,2-c]pyridine-3-carboxamide], half-maximal inhibition (IC50) was put at 4.3 nM.

Compound `COCCOc1nc(N2CCN(C(C)=O)CC2)ccc1NC(=O)c1coc2c1C(=O)N(CCOCc1ccccc1)CC2` [Example 85, N-[6-(4-acetylpiperazin-1-yl)-2-(2-methoxyethoxyl)pyridin-3-yl]-5-[2-(benzyloxy)ethyl]-4-oxo-4,5,6,7-tetrahydrofuro[3,2-c]pyridine-3-carboxamide] showed an IC50 of 266 nM.

Compound `CC(=O)N1CCN(c2ccc(NC(=O)c3coc4c3C(=O)CC(C)(C)C4)cc2)CC1` [Example 148, N-[4-(4-acetylpiperazin-1-yl)phenyl]-6,6-dimethyl-4-oxo-4,5,6,7-tetrahydro-1-benzofuran-3-carboxamide] yielded an IC50 of 32.4 nM. Against the preceding compound, the IC50 is about 8.2-fold lower.

In turn, `CN1CCN(c2ccc(NC(=O)c3coc4c3C(=O)NCCC4)c(Oc3ccc(CO)cc3)n2)CC1` [Example 83, N-{2-[4-(hydroxymethyl)phenoxy]-6-(4-methylpiperazin-1-yl)pyridin-3-yl}-4-oxo-5,6,7,8-tetrahydro-4H-furo[3,2-c]azepine-3-carboxamide] yielded an IC50 of 496 nM.

For `O=C(Nc1ccon1)c1coc2c1C(=O)NCC2` [Example 36, N-(1,2-oxazol-3-yl)-4-oxo-4,5,6,7-tetrahydrofuro[3,2-c]pyridine-3-carboxamide], 8010 nM corresponded to half-maximal inhibition (IC50).

The compound `O=C(Nc1ccc(O)cc1)c1coc2c1C(=O)NCC2` [Example 31, N-(4-hydroxyphenyl)-4-oxo-4,5,6,7-tetrahydrofuro[3,2-c]pyridine-3-carboxamide] had an IC50 of 390 nM.

In the case of `CC(=O)N1CCN(c2ccc(NC(=O)c3coc4c3C(=O)NCC4)c(OC3COC3)n2)CC1` [Example 21, N-[6-(4-acetylpiperazin-1-yl)-2-(oxetan-3-yloxy)pyridin-3-yl]-4-oxo-4,5,6,7-tetrahydrofuro[3,2-c]pyridine-3-carboxamide], the IC50 was determined as 21.6 nM.

The compound `COc1nc(N2CCN(C)CC2)ccc1NC(=O)c1coc2c1C(=O)NCCC2` [Example 7, N-[2-methoxy-6-(4-methylpiperazin-1-yl)pyridin-3-yl]-4-oxo-5,6,7,8-tetrahydro-4H-furo[3,2-c]azepine-3-carboxamide] yielded an IC50 of 212 nM.

With `Cc1nc2cc(NC(=O)c3coc4c3C(=O)N(C)CC4)ccc2[nH]1` [Example 78, 5-methyl-N-(2-methyl-1H-benzimidazol-5-yl)-4-oxo-4,5,6,7-tetrahydrofuro[3,2-c]pyridine-3-carboxamide], the IC50 was found to be 236 nM.

`CN1CCc2occ(C(=O)Nc3ccc4ncccc4c3)c2C1=O` [Example 63, 5-methyl-4-oxo-N-(quinolin-6-yl)-4,5,6,7-tetrahydrofuro[3,2-c]pyridine-3-carboxamide] showed an IC50 of 319 nM.

In turn, `CCOc1nc(N2CCN(C(C)=O)CC2)ccc1NC(=O)c1coc2c1C(=O)N[C@@H]([C@@H](C)O)C2` [Example 115, (6R)—N-[6-(4-acetylpiperazin-1-yl)-2-ethoxypyridin-3-yl]-6-[(1R)-1-hydroxyethyl]-4-oxo-4,5,6,7-tetrahydrofuro[3,2-c]pyridine-3-carboxamide] returned an IC50 of 8.5 nM.

`COc1ccc(NC(=O)c2coc3c2C(=O)N(C)CC3)cn1` [Example 69, N-(6-methoxypyridin-3-yl)-5-methyl-4-oxo-4,5,6,7-tetrahydrofuro[3,2-c]pyridine-3-carboxamide] showed an IC50 of 4340 nM. This IC50 is about 510-fold higher than that of the compound before.

In turn, `Cc1ccc(NC(=O)c2coc3c2C(=O)N(C)CC3)cc1` [Example 4, 5-methyl-N-(4-methylphenyl)-4-oxo-4,5,6,7-tetrahydrofuro[3,2-c]pyridine-3-carboxamide] had an IC50 of 375 nM.

As for `CC1(C)CC(=O)c2c(C(=O)Nc3ccc(N4CCN(S(C)(=O)=O)CC4)cc3)coc2C1` [Example 152, 6,6-dimethyl-N-{4-[4-(methylsulfonyl)piperazin-1-yl]phenyl}-4-oxo-4,5,6,7-tetrahydro-1-benzofuran-3-carboxamide], the IC50 was determined as 35.8 nM.

For `CCOc1nc(N2CCN(C(C)=O)CC2)ccc1NC(=O)c1coc2c1C(=O)N([C@@H](C)COC(C)=O)CC2` [Example 100, (2S)-2-[3-{[6-(4-acetylpiperazin-1-yl)-2-ethoxypyridin-3-yl]carbamoyl}-4-oxo-6,7-dihydrofuro[3,2-c]pyridin-5(4H)-yl]propyl acetate], the midpoint of inhibition, the IC50, lay at 23.5 nM.

`CCOc1nc(N2CCN(C(C)=O)CC2)ccc1NC(=O)c1coc2c1C(=O)N(CCOCCO)C(C)(C)C2` [Example 176, N-[6-(4-acetylpiperazin-1-yl)-2-ethoxypyridin-3-yl]-5-[2-(2-hydroxyethoxyl)ethyl]-6,6-dimethyl-4-oxo-4,5,6,7-tetrahydrofuro[3,2-c]pyridine-3-carboxamide] displayed an IC50 of 2.1 nM.
